Residues, ends and D or L forms follow the SMILES beside them. *: point of attachment. AFC = O=c1cc(C(F)(F)F)c2ccc(N*)cc2o1; Cbz = O=C(OCc1ccccc1)*; CH2F = FC*
Assays:
Cathepsin B (cysteine) = Cathepsin B (cysteine) (Homo sapiens, UniProt P07858); assay: Differential cleavage (selectivity) test, Cathepsin B; assay type: biochemical; settings: 0.4 M Citrate pH 6.1, 10 mM L-cysteine, substrate Z-ARR-AFC; for inhibition at 0.0003 µM: inhibitor 3 X 10^-10 M
Description: (§1) In order to perform the assay, the vehicle (for Step VI) or inhibitor (for Step IX) were incubated with the appropriate substrate in the correct assay buffer and allowed to equilibrate. Subsequently, the protease was added, and the assay was allowed to incubate for an appropriate time. The concentrations used in this experiment were as follows: Vehicle was set up at 4 X 10^-5 M in final assay buffer; Inhibitor was set up at 3 X 10^-10 M in the final assay buffer. Accordingly, the dosages employed should be the minimal amount of vehicle or inhibitor necessary to induce inhibition. […] Substrates were set up based upon the preferred substrate for cleavage of the particular enzyme.
(§2) Positive controls were set up similarly as described for test controls, except that solvent was added in substitution for the inhibitor or vehicle (in a volume equal to the volume of inhibitor or vehicle addition). All of the inhibitors and vehicles could be dissolved in dimethylsulfoxide (DMSO), and therefore, this was the solvent of choice. Negative controls were set up by adding the inhibitor or vehicle and the preferred substrates in a tube without the protease. All potential non-proteolytic liberation of AFC was therefore controlled for in this tube (a feature which also insured stability of the AFC substrates, since these substrates will freely liberate AFC when unstable).
(§3) All controls were set up in triplicate, and experiments were repeated a minimum of five times.
(§4) Percent inhibition was calculated as: % Inhibition = ((AFC positive for ʺSIʺ-AFC negative for ʺSIʺ)-(AFC test-AFC negative for ʺSIʺ))/(AFC positive for ʺSIʺ-AFC negative for ʺSIʺ) × 100 [formula] In this preliminary test, we employed the following human-derived enzymes (with indicated mechanistic class): Cathepsin B (cysteine), Cathepsin L (cysteine), Cathepsin H (cysteine), Cathepsin D (aspartic) Trypsin (serine), the purified Taenia solium cysteine protease, and the Taenia solium crude mix. Cathepsin B was prepared in an assay buffer of 10 mM L-cysteine in 0.4 M Citrate buffer, pH 6.1, using Z-ARR-AFC as the cleavage substrate. Cathepsin L was prepared in an assay buffer of 10 mM L-cysteine in 0.4 M Citrate buffer, pH 5.5, using Z-FR-AFC as the cleavage substrate. Cathepsin H was prepared in an assay buffer of 10 mM L-cysteine in 0.15 M PBS buffer, pH 6.8, using L-R-AFC as the cleavage substrate. Cathepsin D was prepared in an assay buffer of 0.15 M PBS, pH 7.1, using Z-RGFFP-AFC as the cleavage substrate. Trypsin was prepared in an assay buffer of 0.15 M PBS, pH 8.0, supplemented with 100 mM CaCl2 and with Z-R-AFC as the cleavage substrate. Enzyme was incubated so that it was at least 50 times less than the concentration of substrate in order to insure saturating conditions.

Cathepsin H (cysteine) = molecular target: T1, Cathepsin H (cysteine) (Homo sapiens, UniProt P09668); assay: Differential cleavage (selectivity) test, Cathepsin H; assay type: biochemical; settings: 0.15 M PBS pH 6.8, 10 mM L-cysteine, substrate L-R-AFC; for inhibition at 0.0003 µM: inhibitor 3 X 10^-10 M
T1 sequence (P09668 98-335): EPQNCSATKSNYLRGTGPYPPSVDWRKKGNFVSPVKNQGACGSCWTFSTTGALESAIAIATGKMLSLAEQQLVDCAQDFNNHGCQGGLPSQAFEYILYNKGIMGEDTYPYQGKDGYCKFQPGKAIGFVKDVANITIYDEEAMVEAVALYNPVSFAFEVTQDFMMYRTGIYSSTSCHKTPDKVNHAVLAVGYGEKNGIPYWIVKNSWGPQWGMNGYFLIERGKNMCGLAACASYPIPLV
Description: as §1, §2, §3, §4

Trypsin (serine) = assay: Differential cleavage (selectivity) test, Trypsin; assay type: biochemical, human; settings: 0.15 M PBS pH 8.0, 100 mM CaCl2, substrate Z-R-AFC
Description: as §1, §2, §3, §4

Taenia solium crude mix = assay: Competitor assay of vehicles against high Vmax substrate cocktails (Step III), crude mix; assay type: biochemical; settings: for V Value: V = P * M
Description: Step III for a crude mix proceeds it would for a purified protease, except that Vm is used instead of kcat.
The experiment began with a competitor test between the noncleaved low Vmax substrates and the highest Vmax substrate, Z-Phe-Arg-AFC. Concentrations were varied between the low Vmax substrate and Z-Phe-Arg-AFC, as described above under "refinement of assay" until a relative inhibition profile was obtained.
Percent inhibition was calculated as: %Inhibition =; ((AFC positive for"Y"-AFC negative for"Y")-(AFC test-AFC negative for"Y")X100)/(AFC positive for "Y"-AFC negative for "Y") [formula]
One of the most intriguing findings in this experiment was that a highly similar inhibition pattern for the competitor assay was noted when the crude mix was employed as the source of the target protease. Although there were some variations in the effects of inhibitor dilution, the most highly ranked vehicles remained inhibitory consistently in comparison to the profile with the target protease. The relative profile and composition of the top tiers of vehicles was identical. Z-LLL-AFC, Z-LLY-AFC, Mu-LY-AFC, Boc-VPR-AFC, Z-SY-AFC, Z-RR-AFC, Z-FLF-AFC, Z-LGR-AFC consistently presented as the top eight vehicles (Fig. 5b), respectively, based upon their V values (Table 2). […] It was notable that the three vehicles had very similar V values. […] As was mentioned, this vehicle along with Z-LLL-AFC and Z-LLY-AFC, were consistently the most inhibitory vehicles. The V values of the most inhibitory vehicle series are shown below in Table 2. Again, a clear break between the first and second tier vehicles could be noted with the V value. Table 2. Vehicles and V value rankings.

[1] = inhibitor 3 X 10^-10 M, 0.0003 µM

With `CC(C)C[C@H](NC(=O)[C@H](CC(C)C)NC(=O)[C@H](CC(C)C)NC(=O)OCc1ccccc1)C(=O)CF` [Z-LLL-FMK, Z-Leu-Leu-Leu-fluoromethylketone] (Cbz-Leu-Leu-Leu-CH2F) the inhibition at 0.0003 µM (Cathepsin B (cysteine)) was 0%, the inhibition at 0.0003 µM (Cathepsin H (cysteine)) was 0% and the “% Inhibition” value (Trypsin (serine); [1]) was 0%.
`CC(C)C[C@H](NC(=O)OCc1ccccc1)C(=O)N[C@@H](CC(C)C)C(=O)N[C@@H](CC(C)C)C(=O)Nc1ccc2c(C(F)(F)F)cc(=O)oc2c1` [Z-LLL-AFC, Z-Leu-Leu-Leu-AFC] (Cbz-Leu-Leu-Leu-{AFC}) was tested, and the inhibition at 40 µM (Cathepsin B (cysteine); vehicle 4 X 10^-5 M) was 0%, the inhibition at 40 µM (Cathepsin H (cysteine); vehicle 4 X 10^-5 M) was 0% and the Tier (Taenia solium crude mix) was 1 (The first tier was composed of those vehicles, which produced inhibition greater than 50% when in the presence of the 1.4% cocktail). For the same compound, the “V Value” (Taenia solium crude mix) was 0.611 and the “% Inhibition” value (Trypsin (serine); vehicle 4 X 10^-5 M, 40 µM) was 0%.
For `CC(C)C[C@H](NC(=O)OCc1ccccc1)C(=O)N[C@@H](CC(C)C)C(=O)N[C@@H](Cc1ccc(O)cc1)C(=O)Nc1ccc2c(C(F)(F)F)cc(=O)oc2c1` [Z-LLY-AFC, Z-Leu-Leu-Tyr-AFC] (Cbz-Leu-Leu-Tyr-{AFC}), the inhibition at 40 µM (Cathepsin B (cysteine); vehicle 4 X 10^-5 M) was 0%, the inhibition at 40 µM (Cathepsin H (cysteine); vehicle 4 X 10^-5 M) was 0% and the Tier (Taenia solium crude mix) was 1 (The first tier was composed of those vehicles, which produced inhibition greater than 50% when in the presence of the 1.4% cocktail). For the same compound, the “V Value” (Taenia solium crude mix) was 0.55 and the “% Inhibition” value (Trypsin (serine); vehicle 4 X 10^-5 M, 40 µM) was 0%.
In the case of `CC(C)C[C@H](NC(=O)OCc1ccccc1)C(=O)N[C@@H](CC(C)C)C(=O)N[C@@H](Cc1ccc(O)cc1)C(=O)CF` [Z-LLY-FMK, Z-Leu-Leu-Tyr-FMK] (Cbz-Leu-Leu-Tyr-CH2F), the inhibition at 0.0003 µM (Cathepsin B (cysteine)) is reported as 0%, the inhibition at 0.0003 µM (Cathepsin H (cysteine)) is reported as 0% and the “% Inhibition” value (Trypsin (serine); [1]) is reported as 0%.
In the case of Mu-Leu-Tyr-AFC [Mu-LY-AFC], the “% Inhibition” value (Cathepsin B (cysteine); vehicle 4 X 10^-5 M, 40 µM) is reported as 0%, the “% Inhibition” value (Cathepsin H (cysteine); vehicle 4 X 10^-5 M, 40 µM) is reported as 0% and the Tier (Taenia solium crude mix) is reported as 1 (The first tier was composed of those vehicles, which produced inhibition greater than 50% when in the presence of the 1.4% cocktail). For the same compound, the “V Value” (Taenia solium crude mix) was 0.45 and the “% Inhibition” value (Trypsin (serine); vehicle 4 X 10^-5 M, 40 µM) was 0%.
